In the Kinase Knowledgebase extract (Sharma et al. 2016) one finds IC50 and inhibition data, which are given here for 52 compounds.

One assay addresses CDK2 (UniProt P24941). As to the kind of experiment: Enzyme Assay.
For another assay, the target named is EGFR (UniProt P00533). The conditions noted are these: concentration not given here.
EGFR, sequence (P00533 whole entry, looked up): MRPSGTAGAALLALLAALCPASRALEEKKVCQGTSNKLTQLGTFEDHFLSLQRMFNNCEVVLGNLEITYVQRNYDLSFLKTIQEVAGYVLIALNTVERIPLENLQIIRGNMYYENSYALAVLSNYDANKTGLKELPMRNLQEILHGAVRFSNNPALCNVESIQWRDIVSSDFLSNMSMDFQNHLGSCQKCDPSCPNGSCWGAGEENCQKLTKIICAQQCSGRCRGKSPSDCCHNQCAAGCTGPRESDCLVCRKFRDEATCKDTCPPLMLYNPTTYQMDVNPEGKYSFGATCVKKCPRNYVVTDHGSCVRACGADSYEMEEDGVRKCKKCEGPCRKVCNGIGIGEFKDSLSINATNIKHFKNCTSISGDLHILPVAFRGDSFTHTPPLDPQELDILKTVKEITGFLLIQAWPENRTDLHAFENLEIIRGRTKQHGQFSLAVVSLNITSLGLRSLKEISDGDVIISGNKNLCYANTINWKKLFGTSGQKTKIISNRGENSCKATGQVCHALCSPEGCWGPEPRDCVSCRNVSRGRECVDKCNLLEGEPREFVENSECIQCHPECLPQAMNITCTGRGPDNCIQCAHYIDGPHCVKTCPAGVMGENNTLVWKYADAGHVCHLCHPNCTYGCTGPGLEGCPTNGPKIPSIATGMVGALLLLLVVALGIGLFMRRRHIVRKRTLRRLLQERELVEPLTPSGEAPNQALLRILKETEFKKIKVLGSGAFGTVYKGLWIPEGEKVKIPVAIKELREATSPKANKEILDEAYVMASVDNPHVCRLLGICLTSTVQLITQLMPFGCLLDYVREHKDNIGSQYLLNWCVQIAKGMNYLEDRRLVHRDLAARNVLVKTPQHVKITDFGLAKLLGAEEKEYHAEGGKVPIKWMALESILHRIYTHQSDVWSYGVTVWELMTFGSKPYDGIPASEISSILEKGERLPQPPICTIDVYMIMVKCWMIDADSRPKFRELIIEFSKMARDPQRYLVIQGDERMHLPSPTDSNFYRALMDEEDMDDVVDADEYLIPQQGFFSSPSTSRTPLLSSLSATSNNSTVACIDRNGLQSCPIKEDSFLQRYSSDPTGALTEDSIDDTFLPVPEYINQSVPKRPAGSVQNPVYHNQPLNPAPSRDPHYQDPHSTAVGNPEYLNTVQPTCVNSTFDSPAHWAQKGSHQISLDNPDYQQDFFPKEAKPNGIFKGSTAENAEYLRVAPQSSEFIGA

Broadly, the IC50 is the concentration that inhibits the measured activity by half. A lower IC50 goes with greater potency in that assay. At CDK2, `Cc1ccc(S(=O)(=O)Nc2ccc(Nc3cc(-c4ccc(CCC(=O)O)cc4)ncn3)cc2)cc1` registered a 50% inhibitory concentration (IC50) of 10 to 250 µM.

The compound `Cc1ccc(Nc2cc(-c3cccc(C#N)c3)ncn2)cc1NS(C)(=O)=O` displayed an IC50 against CDK2 of 1 to 10 µM.

Turning to `COc1ccccc1-c1cc(Nc2ccc(NS(=O)(=O)c3ccc(C(C)C)cc3)cc2)ncn1`, the IC50 against CDK2 was in the range of 1 to 10 µM.

Regarding `COc1ccccc1-c1cc(Nc2ccc(NC(=O)CC(C)(C)C)cc2)ncn1`, the 50% inhibitory concentration (IC50) on CDK2 was in the range of 1 to 10 µM.

In the case of `COc1ccccc1-c1cc(Nc2ccc(NC(=O)C3CCN(C)CC3)cc2)ncn1`, at CDK2, the IC50 was 1 to 10 µM.

For the compound `COc1ncccc1-c1cc(Nc2ccc(NC(=O)[C@@H]3CCCCN3)cc2)ncn1`, the IC50 at CDK2 lay in the range of 1 to 10 µM.

`Nc1ccc(C(=O)Nc2ccc(Nc3cc(/C=C/c4ccccc4)ncn3)cc2)cc1`: the IC50 against CDK2 was 10 to 250 µM.

For `CN1CCC(Nc2cc(Nc3ccc(NC(=O)C(C)(C)C)cc3)ncn2)CC1`, the IC50 on CDK2 fell in the range of 10 to 250 µM.

Compound `COc1ccccc1-c1cc(Nc2ccc(NC(=O)[C@@H](N)C(C)C)cc2)ncn1` yielded an IC50 against CDK2 of 1 to 10 µM.

Regarding `CC(C)Oc1ccccc1-c1cc(Nc2ccc(NC(=O)[C@@H]3CCCCN3)cc2)ncn1`, the IC50 against CDK2 fell in the range of 1 to 10 µM.

With `Nc1cccc(-c2cc(NCCc3ccncc3)ncn2)c1`, on CDK2, the IC50 was 1 to 10 µM.

Compound `COc1ccc(-c2cc(Nc3ccc(NC(=O)[C@@H]4CCCCN4)cc3)ncn2)c(OC)c1` had an IC50 on CDK2 of 1 to 10 µM.

As usually defined, the inhibition is the change of the read-out against control, counted positive when it falls. Lower therefore signals a weak effect. In the case of `COc1ccccc1-c1cc(Nc2ccc(NC(=O)NC3CCCCC3)cc2)ncn1`, the IC50 at CDK2 lay in the range of 1 to 10 µM. Moreover, the inhibition at EGFR was in the range of 30 to 50%.

`CN1CCN(c2cc(Nc3ccc(NC(=O)C(C)(C)C)cc3)ncn2)CC1`: at CDK2, the IC50 is 10 to 250 µM.

`Nc1ccc(C(=O)Nc2ccc(Nc3cc(-c4cccs4)ncn3)cc2)cc1` gave an IC50 against CDK2 of 10 to 250 µM.

In turn, `COc1ccccc1-c1cc(Nc2ccc(NC(=O)C3CC4CCC3C4)cc2)ncn1` (stereo not drawn) gave an IC50 against CDK2 of 10 to 250 µM.

Consider `CC(C)(C)C(=O)Nc1ccc(Nc2cc(-c3ccccc3C(F)(F)F)ncn2)cc1`, for which the IC50 against CDK2 lay within 10 to 250 µM.

On to `Cc1ccc(Nc2cc(-c3cncnc3)ncn2)cc1NS(C)(=O)=O`, for which, on CDK2, the IC50 fell in the range of 1 to 10 µM.

`N[C@@H]1CCCC[C@H]1NC(=O)c1ccc(Nc2cc(-c3ccccc3OCc3ccccc3)ncn2)cc1.N[C@H]1CCCC[C@@H]1NC(=O)c1ccc(Nc2cc(-c3ccccc3OCc3ccccc3)ncn2)cc1`: the IC50 against CDK2 lay in the range of 0.001 to 1 µM.

On to `COc1ccccc1-c1cc(Nc2ccc(C(=O)N[C@@H]3CCCC[C@@H]3N)cc2)ncn1.COc1ccccc1-c1cc(Nc2ccc(C(=O)N[C@H]3CCCC[C@H]3N)cc2)ncn1`, for which the half-maximal inhibitory concentration (IC50) against CDK2 was in the range of 1 to 10 µM.

As for `COc1ccc(-c2cc(Nc3ccc(C)c(NS(C)(=O)=O)c3)ncn2)cc1`, the IC50 against CDK2 was in the range of 0.001 to 1 µM.

With `COc1ccccc1-c1cc(Nc2ccc(NC(=O)[C@@H]3CCN3)cc2)ncn1`, the IC50 against CDK2 is 1 to 10 µM.

`COc1ccccc1-c1cc(Nc2ccc(NC(=O)c3ccc(N)cc3)cc2)nc(N)n1`: the IC50 against CDK2 lay within 10 to 250 µM.

Compound `Oc1ccccc1-c1cc(NCCc2ccncc2)ncn1` came in with an IC50 at CDK2 of 10 to 250 µM.

`O=C(Nc1ccc(Nc2cc(-c3ccccc3Cl)ncn2)cc1)[C@@H]1CCCCN1` registered an IC50 against CDK2 of 10 to 250 µM.

With `COc1ccccc1-c1cc(Nc2ccc(NC(=O)c3ccc(N)cc3)cc2)ncn1`, the IC50 against CDK2 is 1 to 10 µM.

Compound `Cc1ccc(Nc2cc(-c3cccc(C(F)(F)F)c3)ncn2)cc1NS(C)(=O)=O` registered an IC50 on CDK2 of 10 to 250 µM.

Take `COc1ccccc1-c1cc(Nc2ccc(NC(=O)C3(NC(=O)OC(C)(C)C)CCCC3)cc2)ncn1`: at CDK2, the IC50 was 10 to 250 µM.

`COc1ccccc1-c1cc(Nc2ccc(NS(=O)(=O)C(C)C)cc2)ncn1` returned an IC50 at CDK2 of 0.001 to 1 µM.

`Nc1ccc(C(=O)Nc2ccc(Nc3cc(-c4ccncc4)ncn3)cc2)cc1` showed an IC50 against CDK2 of 10 to 250 µM.

The compound `COc1ccccc1-c1cc(Nc2ccc(NS(=O)(=O)c3ccccc3)cc2)ncn1` came in with an IC50 at CDK2 of 0.001 to 1 µM.

With `COc1ccc(-c2cc(NCCc3ccncc3)ncn2)cc1`, the IC50 at CDK2 lay in the range of 10 to 250 µM.

`COc1ccccc1-c1cc(Nc2ccc(NC(=O)C34CC5CC(CC(C5)C3)C4)cc2)ncn1` had an IC50 against CDK2 of 10 to 250 µM.

Take `CS(=O)(=O)Nc1cccc(Nc2cc(-c3cccc(N)c3)ncn2)c1`: the IC50 against CDK2 lay in the range of 1 to 10 µM.

For the compound `Cc1ccc(S(=O)(=O)Nc2ccc(Nc3cc(-c4cccc(/C=C/C(=O)O)c4)ncn3)cc2)cc1`, the IC50 on CDK2 was 10 to 250 µM.

Take `COc1ccccc1-c1cc(Nc2ccc(C(=O)NC3CCCCC3)cc2)ncn1`: on CDK2, the IC50 lay in the range of 1 to 10 µM.

Consider `CC[C@H](C)[C@H](N)C(=O)Nc1ccc(Nc2cc(-c3ccccc3OC)ncn2)cc1`, for which the half-maximal inhibitory concentration (IC50) against CDK2 was 1 to 10 µM.

`COc1ccccc1-c1cc(Nc2cccc(NC(=O)C(C)(C)C)c2)ncn1` yielded an IC50 at CDK2 of 1 to 10 µM.

At CDK2, `COC(=O)/C=C/c1cccc(-c2cc(Nc3ccc(C)c(NS(C)(=O)=O)c3)ncn2)c1` returned a half-inhibitory concentration (IC50) of 1 to 10 µM.

At CDK2, `COc1ccccc1-c1cc(Nc2ccc(C(=O)Nc3ccc(C(C)C)cc3)cc2)ncn1` yielded an IC50 of 10 to 250 µM.

With `Nc1ccc(C(=O)Nc2ccc(Nc3cc(-c4cccc(N)c4)ncn3)cc2)cc1`, the 50% inhibitory concentration (IC50) on CDK2 fell in the range of 1 to 10 µM.

With `COc1ccccc1-c1cc(Nc2cccc(S(N)(=O)=O)c2)ncn1`, the IC50 against CDK2 is 0.001 to 1 µM.

`COc1ccccc1-c1cc(Nc2ccc(NC(=O)[C@@H]3CCCCN3C(=O)OC(C)(C)C)cc2)ncn1` yielded an IC50 against CDK2 of 1 to 10 µM.

For the compound `Cc1ccc(Nc2cc(-c3cccc(C=O)c3)ncn2)cc1NS(C)(=O)=O`, the IC50 against CDK2 was in the range of 1 to 10 µM.

In turn, `Cc1ccc(Nc2cc(-c3cccc(CO)c3)ncn2)cc1NS(C)(=O)=O` returned an IC50 against CDK2 of 1 to 10 µM.

As to `COc1ccccc1-c1cc(N(C)c2ccc(N)cc2)ncn1`, the IC50 on CDK2 is 1 to 10 µM.

On CDK2, `COc1ccccc1-c1ncnc(Nc2ccc(N)cc2)c1C` displayed an IC50 of 10 to 250 µM.

Consider `COc1ccc(-c2cc(Nc3ccc(NC(=O)c4ccc(N)cc4)cc3)ncn2)c(OC)c1`, for which the IC50 at CDK2 lay in the range of 0.001 to 1 µM.

On to `COc1ccc(OC)c(-c2cc(Nc3ccc(NC(=O)c4ccc(N)cc4)cc3)ncn2)c1`, for which, on CDK2, the half-inhibitory concentration (IC50) was in the range of 10 to 250 µM.

For the compound `Cc1ccc(Nc2cc(-c3ccccc3OC(C)C)ncn2)cc1NS(C)(=O)=O`, the IC50 against CDK2 lay within 0.001 to 1 µM.

The compound `COc1ccccc1-c1cc(Nc2ccc(C(=O)Nc3ccc(C(C)(C)C)cc3)cc2)ncn1` registered an IC50 against CDK2 of 10 to 250 µM.

In the case of `CCCCNS(=O)(=O)c1cccc(Nc2cc(-c3ccccc3OC)ncn2)c1`, on CDK2, the IC50 fell in the range of 1 to 10 µM.
